Consider 88 compounds from a melting point compilation (Tetko et al.; mined from patent text by program, amines drawn as free bases though some values may be those of a salt).

The structures appear in SMILES notation. Some results are limits rather than exact numbers.

As for `COc1ccc(-c2nn(Cc3cccnc3)c(=O)cc2-c2ccncc2)cc1`, the melting point (commonly the temperature, or range, at which the solid turns liquid) turned out to be 162 °C. To `CCCNC(=O)C(C)(C)N=NC(C)(C)C(=O)NCCC` belongs 65 °C; to `Cc1nc(NC(=O)c2ccc(-c3nn[nH]n3)cc2)sc1C(=O)NCc1ccccc1`, above 300 °C.

Compound `O=Cc1ccc(OC2CCN(c3ccccn3)CC2)cc1` yielded a melting point of 114 to 116 °C. `O=C(O)c1ccc2cn[nH]c2c1` registered a melting point above 250 °C. The same measure for `CSC1=C([N+](=O)[O-])CN(Cc2ccccc2)CN1`: 173 to 174 °C. `Oc1cccc2c1c1cccc(F)c1n2Cc1ccccc1` yielded a melting point of 155 to 156 °C.

Turning to `Cc1nsc(NC(=O)Cc2ccc3nn(CC(C)C)cc3c2)c1Cl`, the melting point was in the range of 133 to 135 °C. The compound `COc1cc2c(=O)n(CCN(C)C)c3c(cnc4cccc([N+](=O)[O-])c43)c2cc1OC` came in with a melting point of 194 to 195 °C. To `CC1CN(C)CC(C)(c2cccc(O)c2)O1` (stereo not drawn) belongs 142 to 143 °C; to `COc1nc(OC)c(C(C)C)c(C(C#N)c2cc(C)cc(Cl)c2)n1` (stereo not drawn), 105 to 106 °C; to `CC1(C)CCc2c(N3CCCC3)nc3sc4c(NCc5cncc6ccccc56)ncnc4c3c2C1`, 276 to 277 °C.

`Cc1ccc(-c2ccccc2-c2n[nH]c(=O)o2)cc1`: the melting point was 123 to 125 °C. The same measure for `CC(C)COc1ccc2c(c1)N(C)C(=O)N(c1ccc(Cl)cc1)S2(=O)=O`: 108 to 110 °C; for `COC(=O)c1c(OCc2ccccc2)ccc2c1CC[C@@H](NC(C)=O)[C@@H]2OC(C)=O` (relative stereo): 171 to 172 °C; for `CCCc1nc(C)cn1-c1cc(F)ccc1N`: 38 to 42 °C. The same measure for `CC(Oc1cccc(C=Cc2ccc3ccc(Cl)cc3n2)c1)C(=O)O` (single isomer, unassigned; (-)): 103 to 105 °C; for `CC1(C)[C@@H](CN2CCCC2)CC[C@@]1(C)NCC(=O)N1C[C@@H](F)C[C@H]1C#N`: 108 to 112 °C; for `COc1cccc(CNC(=O)c2nc3ccc(-c4ccccc4)cc3c(=O)[nH]2)c1`: 202 to 204 °C.

Consider `Cc1cc(-n2c(C)ccc2-c2ccc(S(C)(=O)=O)c(F)c2)ccc1-c1cscn1`, for which the melting point fell in the range of 179 to 181 °C. On to `Cc1ccc(N2C(=O)NC(NCC(C)C)NC2=O)cc1`, for which the melting point is 297 to 301 °C. To `Cc1ccc(-c2nc(Cl)nc(Cl)n2)c(C)c1` belongs 136 to 137 °C; to `CN(C)C=Nc1nnnc2c1ncn2C1CC(O)C(CO)O1` (stereo not drawn), 173 to 175 °C; to `Cc1nc2c(OCc3ccccc3)nccc2n1C`, 115 to 116 °C. The same measure for `CCSC1(CCO)C(=O)Nc2ccc(F)cc21` (stereo not drawn): 125 °C; for `Cc1csc(C)c1S(=O)(=O)Cl`: 79 °C; for `COc1ccc2c(c1)c(CCON)c(C)n2Cc1ccc(Cl)cc1`: 92 to 94 °C.

`CCN(CC)CC(O)c1cccc2c(C)c(C)oc12` (stereo not drawn): the melting point fell in the range of 138 to 142 °C. The same measure for `CCNS(=O)(=O)c1cccc(OCc2nc3ccccc3n2C)c1`: 169 to 173 °C; for `CN1C[C@@H]2c3ccccc3Oc3ccc(Cl)cc3[C@H]2C1=O` (relative stereo): 151 °C.

Compound `NC1=NS(=O)N=C1NCCCN(Cc1cccs1)c1ccccn1` (stereo not drawn) registered a melting point of 169 to 171 °C. The same measure for `COc1ccc(NS(=O)(=O)c2ccc(N)cc2OC)cc1`: 51 to 54 °C. With `CC(C)(S)CNc1ccccc1N`, the melting point lay in the range of 38 to 40 °C. Consider `Cc1cc2c(cc1C(O)c1c(C(F)(F)F)ccnc1Cl)OCO2` (stereo not drawn), for which the melting point lay within 127 to 130 °C. Consider `CCC1=NC(NC(=O)Nc2cccc(C)c2)C(=O)N(CC(=O)N2CC3CCC(CC3)C2)c2c(C)cccc21` (stereo not drawn), for which the melting point was in the range of 130 to 133 °C. To `CCS(=O)(=O)Nc1nc(CN2CCN(C(c3ccccc3)c3ccccc3)CC2)cs1` belongs 159 to 160 °C; to `CC(=O)CC(=O)Nc1cccc(OC(=O)NC(C)C)c1`, 161 °C; to `CCOC(=O)C(Cc1ccc(-c2cccc(N(C)C(=O)Nc3ccc(N(C)C)cc3)c2)cc1)Nc1ccccc1C(=O)c1ccccc1` (stereo not drawn), 75 °C. To `CC(=O)c1cccc(C(=O)Nc2c[nH]nc2C(=O)NCCC#N)c1` belongs 205 to 208 °C; to `COc1ccc(C2=NNC(=O)[C@H]3CC=CC[C@@H]23)c2c1OC(C)(C)C2` (relative stereo), 242 °C; to `COC(=O)c1ccccc1Nc1c(Cl)cccc1Cl`, 100 to 103 °C. In turn, `O=C(O)Cc1ccc2c(c1)C(=O)c1cc(C(F)(F)F)ccc1CO2` yielded a melting point of 152 to 155 °C. The same measure for `CC/C(=C(\c1ccc(I)cc1)c1ccc(OCCCCCS(=O)CCCC(F)(F)C(F)(F)F)cc1)c1ccccc1` (stereo not drawn): 85 to 87 °C; for `N#Cc1c(Cl)c(Cl)n(C#N)c1-c1ccc(Cl)c(Cl)c1`: 250 to 252 °C. The same measure for `Nc1nc(-n2cc(C(=O)O)c(=O)c3cc(F)c(N4CC(O)C4)c(F)c32)c(F)cc1F`: 269 to 272 °C.

For the compound `COc1cc(-c2ccc(C(=N)NO)cc2)cc(-c2nc3cc(C(=N)NO)ccc3[nH]2)c1O`, the melting point is 319 to 321 °C. `Cc1cc(Cc2ccc(NS(C)(=O)=O)cc2F)n(C)c1C(=O)c1ccccc1` showed a melting point of 165 to 167 °C.

As to `COc1ccc(NC(=O)Nc2c(Cl)cccc2Cl)cc1OC1CCCC1`, the melting point was 203 to 204 °C.

With `CCCC(Cc1ccc(OCCN2CCCCCC2)cc1)(C(=O)NO)S(=O)(=O)c1ccc(OC)cc1` (stereo not drawn), the melting point is 85 °C. The same measure for `Nc1c(-c2ccccc2)nn2ccccc12`: 155 to 157 °C; for `CCCc1c(OCCCCCOc2ccc3c(c2CCC)OC(C(=O)O)CC3O)ccc(C(C)=O)c1O` (stereo not drawn): 95.5 to 97.5 °C. The same measure for `Cn1c(=O)cc(CCc2ccc(Cl)s2)c2cc(C(=O)c3ccc(Cl)cc3)ccc21`: 151 °C; for `CCN(CC)C(=O)c1nc(-c2ccc(Cl)cc2Cl)[nH]c1C(F)(F)F`: 186 to 190 °C.

`c1ccc(CN2CCOc3cccc4nc5c(c2c34)CCCC5)cc1` came in with a melting point of 132 to 133 °C. As for `CS(=O)(=O)c1ccc(C(CC2CCCC2)C(=O)Nc2ccc3ccccc3n2)cc1[N+](=O)[O-]` (stereo not drawn), the melting point was in the range of 102 to 106 °C. For `O=C(O)CC(CC(=O)O)c1ccc(F)cc1`, the melting point is 145 to 147 °C. The compound `Cc1cccc(NC(=O)NCC(=O)N(CC(=O)OCC2CC2)c2ccccc2)c1` gave a melting point of 158 °C. The same measure for `Cc1ccccc1-c1cc(C(=O)NC(=N)N)c2ccc(O)cc2n1`: 202 to 208 °C; for `Cc1ccc(C)c(NC(=O)C(C)c2ccc(N)c([N+](=O)[O-])c2)c1` (stereo not drawn): 187 to 188 °C. To `CCN(CC)CCOc1ccc(C(O)(CC)c2cccc(C(F)(F)F)c2)cc1` (stereo not drawn) belongs 74 to 75 °C.

Compound `CN(C)CCCC1(C(=O)O)CCCCC1(O)c1ccccc1` (stereo not drawn) came in with a melting point of 144 to 145 °C. The same measure for `CCCc1c(OCc2cccn3c(=O)c(C(=O)O)cnc23)ccc(C(C)=O)c1O`: 170 to 172 °C; for `Cc1cc(Oc2ccc(S(C)(=O)=O)nc2)cc2cc(C3=NCC(CC(=O)O)S3)[nH]c12` (stereo not drawn): 248 to 249 °C; for `O=C1NCCc2c1c1cccc(OCc3ccccc3)c1n2COCc1ccccc1`: 188 to 190 °C. To `Cc1cccc(Nc2ccccc2[N+](=O)[O-])c1C` belongs 118 to 120 °C; to `OCCc1ccc(OCc2ccccc2)cc1`, 85 °C; to `CC(C)(CC(=O)C(=O)Nc1cc2c(cc1Br)C(=O)OC2)c1ccccc1`, 148 to 150 °C. To `Cn1cc(Cc2ccc(C(=O)N3CCC(N4CCCC4)C3)cc2)c2ccccc21` (stereo not drawn) belongs 73 to 78 °C.

`O=[N+]([O-])c1cc(CO)ccc1Oc1ccc(OCc2ccccc2)cc1` displayed a melting point of 72 to 73 °C.

The compound `Cn1cc2c(nc(NC(=O)Nc3ccc(CC(=O)NCCCNC(=O)OC(C)(C)C)cc3)n3nc(-c4ccco4)nc23)n1` displayed a melting point of 198 to 205 °C. `CC1(C)[C@H](C(=O)O)[C@@H]1C=C1CCSC1=O` showed a melting point of 162 °C. The same measure for `COc1ccc(COC(=O)[C@H]2CC[C@H](C(=O)O)CC2)cc1`: 87 to 89 °C; for `CCOC(=O)N(CC(=O)O)n1nnc2ccccc21`: 189 to 192 °C. To `OCc1cccc2cc3ccccc3cc12` belongs 124 to 125 °C; to `O=C1NC(=O)C(Cc2ccc([N+](=O)[O-])cc2)N1` (stereo not drawn), above 235 °C. To `CC(=O)c1ccc(-c2cc(C(C)(C)C)c(O)c(C(C)(C)C)c2)cc1` belongs 144 to 145 °C.

In turn, `Cc1nc(COc2ccc3c(c2)c(SC(C)(C)C)c(CC(C)(C)C(=O)O)n3Cc2ccc(Cl)cc2)cs1` yielded a melting point of 196 to 198 °C. To `C=CCNc1nc(NCC=C)nc(N2CCN(C(=O)NCC(c3ccccc3)c3ccccc3)CC2)n1` belongs 90 to 92 °C; to `COc1cc(O)nc(N)n1`, 106 to 107 °C; to `CC(=O)N[C@@H](CC(C)C)C(=O)N[C@@H](CC(C)C)C(=O)N[C@H]1CCCOC1OC(C)=O` (stereo partly drawn), 238 to 240 °C. As to `N#Cc1ccc(-c2cnco2)cc1`, the melting point turned out to be 140 °C.

Take `OCCCc1conc1-c1ccc(Cl)c(Cl)c1`: the melting point fell in the range of 62 to 63 °C. Compound `O=C(NCC12CC3CC(CC(C3)C1)C2)c1cc(I)ccc1Cl` gave a melting point of 161 to 162 °C.

The compound `COC(=O)c1ccc(-c2c(C(=O)N(C)Cc3cc(C(F)(F)F)cc(C(F)(F)F)c3)n(C)c(=O)c3ncccc23)cc1` showed a melting point of 123 to 125 °C.

In turn, `C#Cc1ccc2c(c1)-c1c3c(c4c([nH]c5ccccc54)c1C2)C(=O)NC3` displayed a melting point above 300 °C. To `CCCCCC(=O)c1cccc(OCc2ccc3ccccc3n2)c1` belongs 52 to 55 °C; to `CNc1cc(F)ccc1C(=O)CS(C)=O` (stereo not drawn), 129 to 134 °C; to `CCOC(=O)Cc1cccc2c(-c3ccccc3)nccc12`, 141 °C.
